Results: patent publication US11918582B2 (RAPT Therapeutics, Inc., priority 2021, dated 2024)
Structures can show the parent of a compound that is named as a salt.

Target: T1, human HPK1 (MAP4K1) (Homo sapiens, UniProt Q92918)
T1 construct: Recombinant human HPK1 kinase domain was obtained from ThermoFisher (Cat. #PV6357) and SignalChem (Cat. #M23-11G); purchased ThermoFisher; SignalChem PV6357; M23-11G
T1 sequence (Q92918 17-274 limits assumed): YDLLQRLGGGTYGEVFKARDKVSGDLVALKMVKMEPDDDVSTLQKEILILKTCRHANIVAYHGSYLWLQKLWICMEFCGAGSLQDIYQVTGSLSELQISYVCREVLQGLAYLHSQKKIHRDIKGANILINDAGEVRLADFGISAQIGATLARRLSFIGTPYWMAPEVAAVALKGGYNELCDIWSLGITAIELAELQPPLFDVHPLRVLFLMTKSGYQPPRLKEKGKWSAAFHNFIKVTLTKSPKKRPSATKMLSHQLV
Assay: Biochemical assay for activity against HPK1 (ADP-Glo, MBP substrate)
Details: recombinant human HPK1 kinase domain, 1 nM enzyme, ADP-Glo luminescence
Outline: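 IC50s come from ADP-Glo luminescence after a 2 h room-temperature reaction phosphorylating MBP in the presence of ATP. Compound was first preincubated 15 min with 1 nM HPK1 kinase domain, human recombinant. Buffer: 50 mM HEPES pH 7.5, 150 mM NaCl, 3 mM TCEP, 10 mM MgCl2, 0.005% Tween-20, 0.01% BSA.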

Row | SMILES | IC50 [nM]
1 | COc1cc2c(cc1Nc1ncc3cnn(C[C@@H]4CCCN4C(=O)C(F)F)c3n1)CN(C)CC2 [Example 186, (S)-2,2-difluoro-1-(2-((6-((6-methoxy-2-methyl-1,2,3,4-tetrahydroisoquinolin-7-yl)amino)-1H-pyrazolo[3,4-d]pyrimidin-1-yl)methyl)pyrrolidin-1-yl)ethan-1-one] | < 100
2 | COc1cc2c(cc1Nc1ncc3cnn(C[C@@H]4CCC[C@H]4CO)c3n1)CN(C)CC2 (racemic) [Example 160, Rac-trans-2-[[6-[(6-methoxy-2-methyl-3,4-dihydro-1H-isoquinolin-7-yl)amino]pyrazolo[3,4-d]pyrimidin-1-yl]methyl]cyclopentyl]methanol] | < 100
3 | COc1cc2c(cc1Nc1ncc3cnn([C@@H]4CC[C@H](CO)C4)c3n1)CN(C)CC2 (relative stereo) [Example 24] | < 100
4 | COc1cc2c(cc1Nc1ncc3cnn(C[C@@H]4CCCN4S(N)(=O)=O)c3n1)CN(C)CC2 [Example 190, (S)-2-((6-((6-methoxy-2-methyl-1,2,3,4-tetrahydroisoquinolin-7-yl)amino)-1H-pyrazolo[3,4-d]pyrimidin-1-yl)methyl)pyrrolidine-1-sulfonamide hydrochloride] | < 100
5 | COc1cc2c(cc1Nc1ncc3cnn([C@H]4C[C@H](CNS(C)(=O)=O)C4)c3n1)CN(C)CC2 [Example 121, N-((trans-3-(6-((6-methoxy-2-methyl-1,2,3,4-tetrahydroisoquinolin-7-yl)amino)-1H-pyrazolo[3,4-d]pyrimidin-1-yl)cyclobutyl)methyl)methanesulfonamide trifluoroacetate] | < 100
6 | CO[C@H]1CC[C@@H](n2ncc3cnc(Nc4ccc5c(c4)CN(C)CC5)nc32)CC1 [Example 36, N-(1-((cis)-4-methoxycyclohexyl)-1H-pyrazolo[3,4-d]pyrimidin-6-yl)-2-methyl-1,2,3,4-tetrahydroisoquinolin-7-amine] | < 100
7 | COc1cc2c(cc1Nc1ncc3cnn(C4CCN(S(C)(=O)=O)CC4)c3n1)CN(C)CC2 [Example 105, 6-methoxy-2-methyl-N-(1-(1-(methylsulfonyl)piperidin-4-yl)-1H-pyrazolo[3,4-d]pyrimidin-6-yl)-1,2,3,4-tetrahydroisoquinolin-7-amine] | < 100
8 | COc1cc2c(cc1Nc1ncc3cnn(C[C@@H]4[C@@H](C)[C@@H](O)CN4C(C)=O)c3n1)CN(C)CC2 [Example 163, 1-[(2S,3R,4S)-4-hydroxy-2-[[6-[(6-methoxy-2-methyl-3,4-dihydro-1H-isoquinolin-7-yl)amino]pyrazolo[3,4-d]pyrimidin-1-yl]methyl]-3-methyl-pyrrolidin-1-yl]ethenone] | < 100
9 | COc1nc2c(cc1Nc1ncc3cnn(C[C@@H]4CCCN4C(C)=O)c3n1)CN(C)CC2 [Example 198] | < 100
10 | COc1cc2c(cc1Nc1ncc3cnn(C[C@H](C)NC(C)=O)c3n1)CN(C)CC2 [Example 93, N-[(1S)-2-[6-[(6-methoxy-2-methyl-3,4-dihydro-1H-isoquinolin-7-yl)amino]pyrazolo[3,4-d]pyrimidin-1-yl]-1-methyl-ethyl]acetamide] | < 100
11 | COc1cc2c(cc1Nc1ncc3cnn([C@H]4CC[C@H](C(=O)O)C4)c3n1)CN(C)CC2 (racemic) [Example 41, rac-(1S,3S)-3-(6-((6-methoxy-2-methyl-1,2,3,4-tetrahydroisoquinolin-7-yl)amino)-1H-pyrazolo[3,4-d]pyrimidin-1-yl)cyclopentane-1-carboxylic acid] | 100 to 250
12 | COc1cc2c(cc1Nc1ncc3cnn([C@H]4CC[C@H](NC(C)=O)CC4)c3n1)CN(C)CC2 [Example 69, trans-N-[4-[6-[(6-methoxy-2-methyl-3,4-dihydro-1H-isoquinolin-7-yl)amino]pyrazolo[3,4-d]pyrimidin-1-yl]cyclohexyl]acetamide] | < 100
13 | COc1cc2c(cc1Nc1ncc3cnn(C4CCCCC4)c3n1)CN(C)CC2 [Example 33, N-(1-cyclohexyl-1H-pyrazolo[3,4-d]pyrimidin-6-yl)-6-methoxy-2-methyl-1,2,3,4-tetrahydroisoquinolin-7-amine] | < 100
14 | COc1cc2c(cc1Nc1ncc3cnn(C[C@H]4CN(S(C)(=O)=O)CCO4)c3n1)CN(C)CC2 [Example 128, (S)-6-methoxy-2-methyl-N-(1-((4-(methylsulfonyl)morpholin-2-yl)methyl)-1H-pyrazolo[3,4-d]pyrimidin-6-yl)-1,2,3,4-tetrahydroisoquinolin-7-amine trifluoroacetate] | < 100
15 | COc1cc2c(cc1Nc1ncc3cnn([C@H]4CC[C@H](C(=O)N(C)C)CC4)c3n1)CN(C)CC2 [Example 55, (1r,4r)-4-(6-((6-methoxy-2-methyl-1,2,3,4-tetrahydroisoquinolin-7-yl)amino)-1H-pyrazolo[3,4-d]pyrimidin-1-yl)-N,N-dimethylcyclohexane-1-carboxamide] | < 100
16 | COc1cc2c(cc1Nc1ncc3cnn(C[C@H]4[C@H](C)CCN4C(C)=O)c3n1)CN(C)CC2 (single isomer, unassigned) [Example 147] | 100 to 250
17 | CN1CCc2ccc(Nc3ncc4cnn(C5CC6(COC6)C5)c4n3)cc2C1 [Example 13, N-(1-(2-oxaspiro[3.3]heptan-6-yl)-1H-pyrazolo[3,4-d]pyrimidin-6-yl)-2-methyl-1,2,3,4-tetrahydroisoquinolin-7-amine] | < 100
18 | CN1CCc2ccc(Nc3ncc4cnn(CCN5CCCS5(=O)=O)c4n3)cc2C1 [Example 4, N-[1-[2-(1,1-dioxo-1,2-thiazolidin-2-yl)ethyl]pyrazolo[3,4-d]pyrimidin-6-yl]-2-methyl-3,4-dihydro-1H-isoquinolin-7-amine trifluoroacetate] | < 100
19 | COc1cc2c(cc1Nc1ncc3cnn(C[C@@H]4C[C@@H](F)CN4C(C)=O)c3n1)CN(C)CC2 [Example 145, 1-[(2S,4R)-4-fluoro-2-[[6-[(6-methoxy-2-methyl-3,4-dihydro-1H-isoquinolin-7-yl)amino]pyrazolo[3,4-d]pyrimidin-1-yl]methyl]pyrrolidin-1-yl]ethan-1-one] | 100 to 250
20 | COc1cc2c(cc1Nc1ncc3cnn(C[C@@H]4CCCN4C(C)=O)c3n1)CN(C(C)C)CC2 [Example 196, (S)-1-(2-((6-((2-isopropyl-6-methoxy-1,2,3,4-tetrahydroisoquinolin-7-yl)amino)-1H-pyrazolo[3,4-d]pyrimidin-1-yl)methyl)pyrrolidin-1-yl)ethan-1-one hydrochloride] | < 100
21 | COc1cc2c(cc1Nc1ncc3cnn(C[C@@H]4CC[C@H](C)N4C(C)=O)c3n1)CN(C)CC2 [Example 171, 1-[(2S,5S)-2-[[6-[(6-methoxy-2-methyl-3,4-dihydro-1H-isoquinolin-7-yl)amino]pyrazolo[3,4-d]pyrimidin-1-yl]methyl]-5-methyl-pyrrolidin-1-yl]ethanone] | < 100
22 | CNC(=O)[C@H]1CC[C@H](n2ncc3cnc(Nc4cc5c(cc4OC)CCN(C)C5)nc32)C1 (racemic) [Example 43, rac-(1S,3S)-3-(6-((6-methoxy-2-methyl-1,2,3,4-tetrahydroisoquinolin-7-yl)amino)-1H-pyrazolo[3,4-d]pyrimidin-1-yl)-N-methylcyclopentane-1-carboxamide] | < 100
23 | COc1cc2c(cc1Nc1ncc3cnn(C[C@@H]4CCCN4C(C)=O)c3n1)C(C(F)(F)F)N(C)CC2 (stereo partly drawn) [Example 208, 1-((2S)-2-((6-((6-methoxy-2-methyl-1-(trifluoromethyl)-1,2,3,4-tetrahydroisoquinolin-7-yl)amino)-1H-pyrazolo[3,4-d]pyrimidin-1-yl)methyl)pyrrolidin-1-yl)ethan-1-one] | < 100
24 | COc1cc2c(cc1Nc1ncc3cnn([C@H]4CC[C@H](O)CC4)c3n1)CN(C)CC2 [Example 49, trans-4-(6-((6-methoxy-2-methyl-1,2,3,4-tetrahydroisoquinolin-7-yl)amino)-1H-pyrazolo[3,4-d]pyrimidin-1-yl)cyclohexan-1-ol] | < 100
25 | COc1cc2c(cc1Nc1ncc3c(C)nn(C4COC4)c3n1)CN(C)CC2 [Example 3, 6-methoxy-2-methyl-N-[3-methyl-1-(oxetan-3-yl)pyrazolo[3,4-d]pyrimidin-6-yl]-3,4-dihydro-1H-isoquinolin-7-amine] | < 100
26 | COc1cc2c(cc1Nc1ncc3cnn([C@H]4C[C@](C)(C(=O)O)C4)c3n1)CN(C)CC2 [Example 71, 3-[6-[(6-methoxy-2-methyl-3,4-dihydro-1H-isoquinolin-7-yl)amino]pyrazolo[3,4-d]pyrimidin-1-yl]-1-methyl-cyclobutanecarboxylic acid] | < 100
27 | COc1cc2c(cc1Nc1ncc3cnn(C[C@@H]4[C@@H](C)[C@H](F)CN4C(C)=O)c3n1)CN(C)CC2 [Example 191, 1-((2S,3R,4S)-4-fluoro-2-((6-((6-methoxy-2-methyl-1,2,3,4-tetrahydroisoquinolin-7-yl)amino)-1H-pyrazolo[3,4-d]pyrimidin-1-yl)methyl)-3-methylpyrrolidin-1-yl)ethan-1-one] | < 100
28 | COc1cc2c(cc1Nc1ncc3cnn(C[C@@H]4C[C@H]5C[C@H]5N4C(C)=O)c3n1)CN(C)CC2 [Example 215, 1-[(1R,3S,5R)-3-[[6-[(6-methoxy-2-methyl-3,4-dihydro-1H-isoquinolin-7-yl)amino]pyrazolo[3,4-d]pyrimidin-1-yl]methyl]-2-azabicyclo[3.1.0]hexan-2-yl]ethanone] | < 100
